The text below walks through data of patent US20230414571A1, “APPLICATION OF SMALL-MOLECULE COMPOUND IN PREPARATION OF ANTITUMOR DRUG” (SOOCHOW UNIVERSITY, priority 2021, published 2023).

One data set concerns U87MG tumor. As to the kind of experiment: U87MG tumor growth and survival in mice after various treatments. In kind it is in vivo, nude mouse. Particulars: for median survival time: mice with U87MG tumor, n=6 per group. From the text: In all different experimental groups (a and b in FIG. 10), the overall survival (OS) of mice treated with TMZ and compound 27 is the best. […] However, mouse death caused by glioma is reduced only 20 days […] treatment. After this period of time, the survival rates of the in-situ U87 heterogeneous tumor of the two single drug groups decreases rapidly due to malignant glioma.

Data set [1] is described as follows: Plasma pharmacokinetics in mice determined by GLMSD. Particulars: ip, TMZ injected into abdominal cavity of mouse, plasma, average of 8 mice. In kind it is in vivo, mouse. Here is the method: It can be seen from FIG. 8-1 that the GLMSD platform can specifically acquire the pharmacokinetic data of small-molecule compound 27. Competitive advantages of GLMSD in pharmacokinetic research: (1) a complete drug blood concentration curve of each individual may be tracked; and (2) the total number of mice used in the test is reduced. Since the blood sample consumption of the GLMSD method is low (10 μL of blood per time point), one mouse can be used for completing the entire pharmacokinetic curve (blood sampling at 11 time points within 24 hours, and the minimum interval being 0.25 hour) of a drug.
Based on the advantage that the complete PK curve can be tested by means of the GLMSD, we observe that 3 (#2, #3 and #4) in 8 mice have the characteristic re-absorption peak of this small-molecule inhibitor at the time point of 8 h, and such a characteristic re-absorption peak hardly exists in other 5 mice. This significant phenomenon is related to drug uptake differences between individuals, prompting that compound 27 may re-enter blood circulation by means of a secondary absorption pathway. In the mode of continuous multiple administration (c in FIG. 8-2), pharmacokinetic data of compound 27 (40 mg/kg) was collected from each mouse every day (1, 3, 6, and 8 hours after last administration) for 5 days. For a single dose (a in FIG. 8-2) or a continuous multi-dose (d in FIG. 8-2) administration manner, a limitation of a conventional LC-MS technology lies in obtaining a single data point of pharmacokinetics of a drug by sacrificing one mouse, whereas GLMSD can break through this limitation by providing a complete pharmacokinetic curve based on a single mouse.

Another data set has as its target T1, hexokinase 2 (HK2) (Homo sapiens, UniProt P52789).
T1 sequence (P52789 1-917): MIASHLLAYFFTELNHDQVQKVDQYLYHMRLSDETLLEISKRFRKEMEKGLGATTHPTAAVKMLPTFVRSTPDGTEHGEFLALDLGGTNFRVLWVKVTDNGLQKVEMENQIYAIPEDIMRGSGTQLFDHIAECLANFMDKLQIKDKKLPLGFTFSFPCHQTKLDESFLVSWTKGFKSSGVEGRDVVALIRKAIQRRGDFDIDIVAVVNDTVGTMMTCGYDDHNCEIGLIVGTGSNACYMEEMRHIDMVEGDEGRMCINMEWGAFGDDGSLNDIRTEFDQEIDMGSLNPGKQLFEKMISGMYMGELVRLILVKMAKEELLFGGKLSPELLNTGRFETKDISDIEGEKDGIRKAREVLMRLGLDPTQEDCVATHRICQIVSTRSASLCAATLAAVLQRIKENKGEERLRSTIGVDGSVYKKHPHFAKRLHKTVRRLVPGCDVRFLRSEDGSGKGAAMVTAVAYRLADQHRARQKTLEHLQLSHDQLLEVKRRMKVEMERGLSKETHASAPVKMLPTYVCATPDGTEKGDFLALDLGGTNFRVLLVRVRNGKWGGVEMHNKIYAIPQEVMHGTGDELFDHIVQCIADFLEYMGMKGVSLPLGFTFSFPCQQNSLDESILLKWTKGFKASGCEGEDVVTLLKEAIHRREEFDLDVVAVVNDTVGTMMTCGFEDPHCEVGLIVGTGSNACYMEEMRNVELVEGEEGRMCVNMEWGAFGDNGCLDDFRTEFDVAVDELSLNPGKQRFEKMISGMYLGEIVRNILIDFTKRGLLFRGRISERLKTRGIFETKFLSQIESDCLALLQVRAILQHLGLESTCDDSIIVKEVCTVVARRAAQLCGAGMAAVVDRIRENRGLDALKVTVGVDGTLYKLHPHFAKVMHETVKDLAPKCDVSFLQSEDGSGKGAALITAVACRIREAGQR
As to the kind of experiment: HK2 activity test on GLMSD platform (graphite dots MALDI-MS). In kind it is biochemical. Particulars: for inhibitory effect on the HK2: inhibition curves FIGS. 3-7, colorimetric kit and GLMSD; for inhibition at 20 µM: read-out: inhibition rate of HK2 activity. Here is the method: GDs were dispersed in water at a concentration of 1 mg/mL as a matrix solution to be used. A sample was prepared by using a quick-drying method: firstly, 1 μL of matrix solution was dropped onto a target plate, and after natural drying at a room temperature in a […], 1 μL of sample to be analyzed was dropped onto a surface of the dried matrix, and after the sample was naturally dried, mass spectrometry was directly performed:
An instrument in the MALDI-MS was a Bruker Ultraflex III TOF/TOF mass spectrometer, which was mainly in a reflection positive and negative ion mode. Nd of 355 nm for instrument parameter: YAG laser had laser energy of 30% corresponding to 57 μJ per pulse (laser pulse duration: 3 ns), a laser spot size was about 50-100 μm, each sample was repeatedly tested four times, and 3000 laser spots were accumulated in each mass spectrum. All samples were measured under the same instrumental conditions.
an inhibition rate=(1−B/A)×100%, where • A was: a glucose concentration in a pre-reaction solution without the inhibitor-a glucose concentration in a post-reaction solution without the inhibitor, • B was: a glucose concentration in a pre-reaction solution with the inhibitor-a glucose concentration in a post-reaction solution with the inhibitor, and • a glucose concentration in the reaction solution=(mass spectrum signal strength of [glucose+Na]+/mass spectrum signal strength of [glucose-1-^13C+Na]+)×known concentration of glucose-1-^13C.

The test system of data set [2] is cranial nerve glioma cell U87. As to the kind of experiment: Antiproliferative activity against cranial nerve glioma cell U87. In kind it is cell-based. Particulars: U87 cells, FIG. 14. From the text:
FIG. 14 is an antiproliferative activity test diagram of compound 8, compound 11, compound 13, and compound 21 against a cranial nerve glioma cell U87.

The mark [3] stands for this setting: small-molecule concentration of the inhibitor 20 μM, GLMSD.

“Also recorded” adds a separate entry of the source.

As to `O=C(O)C(=O)CBr` [3-BP, 3-bromopyruvic acid, reference compound], in the data set on U87MG tumor, the median survival time is reported as 17 days.

`COc1ccc(CN2CCNCC2)c(OC)c1OC` [TMZ, Trimetazidine, reference compound]: in data set [1] (read-out: AUC0-24 h), the AUC(0-t) is 247 µg·h/mL. Also, the Cmax in data set [1] (read-out: Cmax) came out at 33700 ng/mL. For the same compound, the half-life in data set [1] (read-out: T1/2 (converted)) was 103 min. Also, the Tmax in data set [1] (read-out: Tmax) amounted to 30 min. Also, the “glioma growth / survival rate, bioluminescence tracking” value in the data set with U87MG tumor (in situ U87-luciferase mice, compared with PBS) is given as “delays the growth of glioma”. Also, the median survival time with U87MG tumor is listed as 35 days.

Turning to `COc1cccc(CNCCCn2ccnc2)c1OCc1ccc(F)cc1` [compound 8], at hexokinase 2 (HK2), the “inhibitory effect on the HK2” value is “good inhibitory effects”. In addition, at hexokinase 2 (HK2) (setting [3]), the “inhibition rate of HK2 activity” value is 44%. Besides, the “inhibitory effect on U87” value in data set [2] is “inhibitory effects on U87”.

As for `Cc1c(CCC(=O)NC2CS(=O)(=O)CC2O)c(=O)oc2cc(O)ccc12` (stereo not shown) [compound 11], the “inhibitory effect on the HK2” value against hexokinase 2 (HK2) is “good inhibition effect; also recorded: good inhibitory effects”. Moreover, the inhibition at 20 µM at hexokinase 2 (HK2) (setting [3]) was 29%. Besides, in data set [2], the “inhibitory effect on U87” value is on record as “inhibitory effects on U87”.

As to `COc1ccccc1OCC(=O)NNC(=O)CCCC(=O)NNC(=O)COc1ccccc1OC` [compound 21], at hexokinase 2 (HK2), the “inhibitory effect on the HK2” value is reported as “good inhibitory effects”. Besides, the inhibition at 20 µM on hexokinase 2 (HK2) (setting [3]) amounted to 25%. Further, in data set [2], the “inhibitory effect on U87” value is reported as “inhibitory effects on U87”.
